Test results: ChEMBL document CHEMBL1122888, “22-Hydroxycholesterol derivatives as HMG CoA reductase suppressors and serum cholesterol lowering agents” (1985)

Columns and labels:
Monkey [1] = experiment: Evaluated for serum lipoprotein LDL levels in the 14 day treated monkey at dose (10 mg/kg/day, ig) over a 2-week period; format: functional, Cercopithecidae; set-up: reference not given here
Monkey [2] = experiment: Evaluated for serum lipoprotein HDL levels in the 14 day treated rhesus monkey at dose (10 mg/kg/day, ig) over a 2-week period; format: functional, Cercopithecidae; set-up: reference not given here
[3] = target: T1, 3-hydroxy-3-methylglutaryl-coenzyme A reductase (Homo sapiens) (UniProt P04035); experiment: Evaluated in human fibroblast tissue culture assays for suppression of HMG-CoA reductase at concentration of 1 ug/mL.
T1 sequence (whole entry): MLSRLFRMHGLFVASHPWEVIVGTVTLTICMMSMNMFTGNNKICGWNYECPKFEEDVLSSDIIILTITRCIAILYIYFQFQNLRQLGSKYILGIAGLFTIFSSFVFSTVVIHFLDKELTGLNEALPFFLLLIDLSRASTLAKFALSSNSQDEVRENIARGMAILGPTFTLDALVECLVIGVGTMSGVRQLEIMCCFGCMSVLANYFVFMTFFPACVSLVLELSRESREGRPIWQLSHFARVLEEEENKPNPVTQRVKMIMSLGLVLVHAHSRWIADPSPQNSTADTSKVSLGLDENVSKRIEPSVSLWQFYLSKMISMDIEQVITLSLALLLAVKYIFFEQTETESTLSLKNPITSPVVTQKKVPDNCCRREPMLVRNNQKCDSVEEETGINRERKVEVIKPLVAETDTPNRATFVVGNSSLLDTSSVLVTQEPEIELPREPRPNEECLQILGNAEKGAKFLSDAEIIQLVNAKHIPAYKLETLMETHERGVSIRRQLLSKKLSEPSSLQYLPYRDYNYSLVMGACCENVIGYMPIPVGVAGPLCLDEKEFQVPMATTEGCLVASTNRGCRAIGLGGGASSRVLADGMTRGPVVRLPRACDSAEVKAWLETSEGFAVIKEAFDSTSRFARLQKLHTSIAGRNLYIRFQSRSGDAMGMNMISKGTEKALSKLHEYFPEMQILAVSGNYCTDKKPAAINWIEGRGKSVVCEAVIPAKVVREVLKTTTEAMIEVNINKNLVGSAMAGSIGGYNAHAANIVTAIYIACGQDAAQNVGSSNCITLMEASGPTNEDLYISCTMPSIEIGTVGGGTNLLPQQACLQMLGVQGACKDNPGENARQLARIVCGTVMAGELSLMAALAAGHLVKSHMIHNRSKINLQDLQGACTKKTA

Monkey [4] = experiment: Evaluated for serum cholesterol VLDL levels in the 14 day treated monkey at dose (10 mg/kg/day, ig) over a 2-week period; format: functional, Cercopithecidae
[5] = system: HMG-CoA reductase (Rattus norvegicus); experiment: Evaluated for the percent suppression of elevated liver HMG-CoA reductase in Diazoesterol treated rats
Rattus norvegicus [6] = organism: Rattus norvegicus; experiment: Minimum effective dose necessary to produce >=25% decrease of elevated liver HMG CoA reductage levels; format: functional; conditions: read-out: MED
[7] = target: T1, 3-hydroxy-3-methylglutaryl-coenzyme A reductase (Homo sapiens); experiment: Evaluated for serum cholesterol levels in the 14 day treated rhesus monkeys at dose (10 mg/kg/day, ig) over a 2-week period; format: functional, organism-based; conditions: Cercopithecidae; target entry is the homologue from another species
[8] = target: T1, 3-hydroxy-3-methylglutaryl-coenzyme A reductase (Homo sapiens); experiment: Evaluated for serum cholesterol levels in the 14 day treated primate (male rhesus monkeys) at dose (10 mg/kg/day, ig) over a 2-week period; format: functional, organism-based; conditions: Cercopithecidae; target entry is the homologue from another species
Rattus norvegicus [9] = organism: Rattus norvegicus; experiment: Minimum effective dose necessary to produce >=25% decrease of elevated liver HMG CoA reductage levels in diazasterol treated rats; format: functional; conditions: read-out: MED

`C[C@H](C(O)CCC(C)(C)F)C1CCC2C3CC=C4CC(O)CCC4(C)C3CCC21C` (stereo partly drawn) was tested, and the Lipoprotein level (Monkey [1]) was 25%, the Lipoprotein level (Monkey [2]) was 61% and the inhibition [3] was over 95%. It also gave a cholesterol level (Monkey [4]) of 8 mg/dL, a Suppression [5] of 26% and a minimal effective dose (Rattus norvegicus [6]) of 0.5 mg/kg. It also gave a cholesterol level [7] of 150 mg/dL.

For `C[C@H](C(O)CCC(C)(C)Cl)C1CCC2C3CC=C4CC(O)CCC4(C)C3CCC21C` (stereo partly drawn), the Lipoprotein level (Monkey [1]) was 22%, the Lipoprotein level (Monkey [2]) was 70% and the cholesterol level (Monkey [4]) was 4 mg/dL. It also gave a Suppression [5] of 28%, a minimal effective dose (Rattus norvegicus [6]) of 0.2 mg/kg and a cholesterol level [7] of 168 mg/dL.

`CC(C)CCC(O)[C@@H](C)[C@H]1CC[C@H]2[C@@H]3CC=C4C[C@@H](O)CC[C@]4(C)[C@H]3CC[C@]12C` (stereo partly drawn) was tested, and the minimal effective dose (Rattus norvegicus [6]) was over 30 mg/kg.

Work on `C[C@H](C(O)CCC1CC1)C1CCC2C3CC=C4CC(O)CCC4(C)C3CCC21C` (stereo partly drawn) yielded a Lipoprotein level (Monkey [1]) of 23%, a Lipoprotein level (Monkey [2]) of 68% and an inhibition [3] of over 95%. For the same compound, the cholesterol level (Monkey [4]) was 4 mg/dL, the Suppression [5] was 30% and the minimal effective dose (Rattus norvegicus [6]) was 0.5 mg/kg. The cholesterol level [7] was 179 mg/dL.

`C[C@H](C(O)CCC(C)(C)C)C1CCC2C3CC=C4CC(O)CCC4(C)C3CCC21C` (stereo partly drawn) was tested, and the cholesterol level [8] was 167 mg/dL, the Lipoprotein level (Monkey [1]) was 25% and the Lipoprotein level (Monkey [2]) was 66%. For the same compound, the inhibition [3] was 95%, the cholesterol level (Monkey [4]) was 6 mg/dL and the Suppression [5] was 39%. For the same compound, the minimal effective dose (Rattus norvegicus [9]) was 0.5 mg/kg.
